In assay [1] the test system is wild-type B. fungorum LB400. The experiment in a line: Natural chloramphenicol resistance seen during selection of transconjugants. Type of assay: cell-based, Burkholderia fungorum. Conditions: citrate medium. As for the experimental part:
A ΔflhA::kan mutant of B. fungorum LB400 was generated by introducing pCM363 by conjugation. […] One tetracycline-sensitive strain representing a ΔfIhA::kan mutant, CM363K.1, was chosen for further study. The plasmid pCM157 was used as described above to produce the ΔflhA strain CM363.1. Analytical PCR was performed with wild-type B. fungorum LB400, CM363K.1, and CM363.1 for confirmation (data not shown).

The test system of assay [2] is ΔflhA strain CM363.1.

≈ marks a conversion by molar mass, not a printed value.

As for `O=C(N[C@H](CO)[C@H](O)c1ccc([N+](=O)[O-])cc1)C(Cl)Cl` [chloramphenicol], the naturally resistant below in assay [1] lay within 10 to 20 µg/mL. As to `C=O` [formaldehyde], in assay [2], the MIC came to 100 µM (≈ 3 µg/mL).

By MIC is commonly meant the lowest concentration that inhibits growth of the organism. Read a high MIC as a need for much substance.

The values are drawn from patent publication US10920230B2, “Methylotrophs for aquaculture and animal feed” (KnipBio, Inc., priority 2013, dated 2021).
